Data as given in patent publication US8207143B2, “Methods of treating cancer and other conditions or disease states using LFMAU and LDT” (Yale University, priority 2005, dated 2012).

Columns and labels:
[1] = tested on: colon 38 mouse tumor; assay: Experiment 7: LDT and LFMAU alone and with 5-Fluorouracil/leucovorin on colon 38 in immuno-competent mice; format: in vivo; settings: LDT 100 mg/kg
Procedure: This tumor is passed from a solid tumor growing in mice. Several grams (assuming a gram per ml) are pressed through a sterile screen and suspended in a tissue culture media without phenol red or fetal calf serum (a balanced salt solution) at 2 ml/gram of tumor. Then 0.1 ml of this tumor suspension is implanted into the flank of the mouse. Ten days to two weeks after implantation (when the tumors could be measured with a caliper), unless otherwise indicated, the drug therapy was initiated.
In general, drugs are delivered at a rate of 0.1 ml per 10 grams of body weight. Every day the mice are weighed to deter the amount to be injected and as a index of toxicity.
The Tumor Volume is calculated from the measurements by the formula: length (mm)×width (mm)×width (mm)×II/6 (as a % of Day 1).
This experiment was designed to determine the effect of LDT and LFMAU alone and in combination with 5-Fluorouracil with leucovorin rescue on the growth of mouse tumor (colon 38) in immuno-competent mice. The drugs were administered to the mice according to the following schedule:
5FU/LV—150 mg/kg each i.p. once on day one
LDT—100 mg/kg p.o. b.i.d. for 5 days
LFMAU—50 mg/kg p.o. bid for 5 days
Combination groups received both treatments as per above schedules.

[2] = tested on: colon 38; assay: Experiment 8: LDT and LFMAU enhancement of oxaliplatin on colon 38 growth in C57BL6 female mice; format: in vivo, mouse
Procedure: This tumor is passed from a solid tumor growing in mice. Several grams (assuming a gram per ml) are pressed through a sterile screen and suspended in a tissue culture media without phenol red or fetal calf serum (a balanced salt solution) at 2 ml/gram of tumor. Then 0.1 ml of this tumor suspension is implanted into the flank of the mouse. Ten days to two weeks after implantation (when the tumors could be measured with a caliper), unless otherwise indicated, the drug therapy was initiated. In general, drugs are delivered at a rate of 0.1 ml per 10 grams of body weight. Every day the mice are weighed to deter the amount to be injected and as a index of toxicity. The Tumor Volume is calculated from the measurements by the formula: length (mm)×width (mm)×width (mm)×II/6 (as a % of Day 1). Experiment 8 tested the effects of LDT (L-dT) and LFMAU (15 mg/kg of each, same schedule as above) on the enhancement of anti-cancer drug effect (oxaliplatin 10 mg/kg i.p., once on day 1) on colon 38 growth in C57BL6 female mice.

[3] = tested on: HepG2; assay: Experiment 9: LDT enhancement of oxaliplatin on HepG2 in NCR Nu/Nu male mice; format: in vivo, human
Procedure: This is a human hepatocarcinoma that is grown in tissue culture as a monolayer in MEM with 10% FBS. Several flasks of cells are grown, then harvested with pancreatin and resuspended in a balanced salt solution at 10^8 per ml the 0.1 ml of this suspension is implanted into the flank of a NCR nude mouse (T cell deficient to grow human tissues). Then approximately 10 days later, when the tumor was measurable, the drug treatment started. In general, drugs are delivered at a rate of 0.1 ml per 10 grams of body weight. Every day the mice are weighed to deter the amount to be injected and as a index of toxicity. The Tumor Volume is calculated from the measurements by the formula: length (mm)×width (mm)×width (mm)×II/6 (as a % of Day 1). Experiment 9 tested the effects of LDT (15 mg/kg, same schedule as above) on the enhancement of anti-cancer drug effect (oxaliplatin 10 mg/kg i.p., once on day 1) on HepG2in immunodeficient NCR Nu/Nu male mice.

[4] = tested on: B16 melanoma; assay: Experiment 6: B16 melanoma injected subcutaneously into C57 BL6 mice; format: in vivo, mouse; settings: B16 melanoma s.c. in C57 BL6 mice; LFMAU 50 mg/kg B.I.D., 5 days pretreatment then ten days; Controls 831±474.5
Procedure: These experiments includes B16 melanoma which was injected subcutaneously into C57 BL6 mice which were pretreated for 5 days with LFMAU (B.I.D.) and then subsequently for ten days with LFMAU (BID.) at 50 mg/kg. with no other anti-cancer compound. This experiment yielded tumor size S.D. for the Controls of 831±474.5 and for the LFMAU treated mice of 160±150.3.

[5] = immunocompetent mice, LFMAU 50 mg/kg p.o. b.i.d. for 5 days

Cc1cn([C@@H]2C[C@@H](O)[C@H](CO)O2)c(=O)[nH]c1=O [LDT, β-L-2′-deoxyribofuranosylthymidine]
duration of the effect after therapy (FIG. 7) [1, 5]: lasted well past the 5 day therapy | effect on growth of colon 38 mouse tumor, alone (FIG. 7) [1, 5]: slows down the growth | effect on the anti-cancer activity of 5-FU/LV (FIG. 7) ([1]; with 5FU/LV 150 mg/kg each i.p. once on day one, LFMAU 50 mg/kg p.o. b.i.d. 5 days): significant (additive or synergistic) | enhancement of anti-tumor effect of Oxaliplatin on colon 38 (FIG. 8) ([2]; 15 mg/kg of each nucleoside, oxaliplatin 10 mg/kg i.p. once on day 1): clearly enhanced the anti-tumor effect of Oxaliplatin | duration of the effect after treatment (FIG. 8) ([2]; 15 mg/kg with oxaliplatin 10 mg/kg i.p.): lasts well after the nucleoside treatment is stopped | effect on HepG2 tumor, alone or in combination (FIG. 9) ([3]; LDT 15 mg/kg): effective alone or in combination with oxaliplatin | duration of the effect after treatment (FIG. 9) ([3]; LDT 15 mg/kg with oxaliplatin): lasts after the nucleoside treatment is stopped | enhancement of anti-tumor effect of Oxaliplatin on HepG2 (FIG. 9) ([3]; LDT 15 mg/kg, oxaliplatin 10 mg/kg i.p. once on day 1): clearly enhanced the anti-tumor effect of Oxaliplatin

Cc1cn([C@H]2O[C@@H](CO)[C@H](O)[C@H]2F)c(=O)[nH]c1=O [LFMAU, 2′-fluoro-5-methyl-β-L-arabinofuranosyluridine]
tumor size S.D. [4]: 160±150.3
